Test results published in patent publication US20190345202A1, “ANDROGEN RECEPTOR ANTISENSE OLIGONUCLEOTIDES” (OliPass Corporation, priority 2016, published 2019).
[C(1O2)] = PNA monomer with modified cytosine C(1O2), structure; [A(5)] = PNA monomer with modified adenine A(5), structure; {Fethoc} = Fethoc group on PNA N-terminus; {NH2} = C-terminal amide

What was measured:
androgen receptor = assay: AR IHC of skin samples after topical administration in mice; format: in vivo, mouse; details: topical 1, 5, or 25 fM, skin samples Day 30
Source text: [AR IHC of Skin Sample] Following the shaving in Day 21, the mice received a single topical administration of either vehicle or “ASO 1” according to the group. In Day 24, the skin of the area with hair removal was sampled for immunohistochemistry (IHC) analysis against androgen receptor. The skin samples were cryo-sectioned and subjected to immunostaining in series with a primary anti-AR antibody (Cat. No. sc-816, Santa Cruz) at 1:100 dilution, with a secondary anti-IgG (Cat No. BA-1100, Vector) at 1:200 dilution, and then with Dylight 594-steptavidin (Cat No. SA-5594, Vector, Calif., USA) at 1:200 dilution for red fluoresence tagging. The IHC images were captured on an Olympus fluorescence microscope for changes in the AR expression level upon topical treatment with “ASO 1”.
[AR Immunohistochemistry of Skin Samples] After the hair cut in Day 27, The animals topically received further either vehicle or “ASO 10” at 1, 5, or 25 fM in Days 27 and 29. Skin samples of the back were collected in Day 30 for immunohistochemical analysis against androgen receptor. The skin samples were subjected to immunostaining against androgen receptor as described in “Example 7”. IHC images were captured on a Zeiss slide scanner. FIG. 14B is a representative set of AR IHC images. […] It would be difficult to clearly state that the AR expression in hair follicles decreased in the treatment groups due to the marked increases in the number of hair follicles in the treatment groups.

human AR mRNA = assay: qPCR (TaqMan probe) of AR mRNA level in MCF7 cells; format: cell-based; details: 1 zM to 1 aM, 24 hours
Source text: The qPCR reaction was monitored with a TaqMan probe of [(5′→3′) TTTCTTCAG-ZEN-CTTCCGGGCTC-3IABkFQ (SEQ ID NO: 19)].

AR protein = assay: AR IHC of tissues of mice subcutaneously administered; format: in vivo, mouse; details: subcutaneous, dose increased from 0.01 to 0.1 pmole/Kg, 2× per week for 4 weeks, male C57BL/6 mice
Source text: 12 weeks old male C57BL/6 mice were randomly assigned to 3 groups of negative control (no ASO treatment), 0.01 pmole/Kg “ASO 10” and 0.1 pmole/Kg “ASO 10”. (3 animals per group) Mice subcutaneously received either vehicle or ASO dissolved in vehicle (PBS) 2× per week for 4 weeks according to the dosing group. Three days post the final dosing, the animals were anesthetized with zoletil/rompun and subjected to tissue or organ sampling for AR IHC by paraffin blolck.
The AR protein was probed in series with a primary antibody (Cat. No. sc-816, Santa Cruz) at 1:100 dilution, a secondary anti-rabbit IgG (Cat. No. BA-1100, VECTOR) at 1:200 dilution, and Dylight 594-Streptavidin (Cat. No. SA-5594, VECTOR) at 1:200. Nucleus was stained with DAPI. IHC fluorescence images were captured on a Zeiss slide scanner.

human AR pre-mRNA = assay: AR nested PCR for skipping of AR exon 5 in MCF7 cells; format: cell-based; details: 3 aM to 3 fM, 3 hours
Procedure: “ASO 5” was evaluated by AR nested PCR for its ability to induce the skipping of AR “exon 5” in MCF7 cells (Cat. Number: HTB-22, ATCC). The employed procedures are detailed as follows.
[Cell Culture & ASO Treatment] MCF7 cells were grown in EMEM medium supplemented with 10% FBS, 1% streptomycin/penicillin, and 0.01 mg/ml bovine insulin under 5% CO2 atmosphere at 37° C. Cells were sub-cultured in 60 mm culture dish prior to treatment with “ASO 5” at 3 aM to 3 fM.
[RNA Extraction] MCF7 cells were incubated with or without “ASO 5” for 3 hours. Total RNA was extracted from cells in 60 mm culture dish using “Universal RNA Extraction Kit” (Cat. No. 9767, Takara) according to the manufacturer's instructions [cDNA Synthesis by One-step PCR]
[Nested PCR Amplification] Throughout the amplification process, was used a unique amplification technique (touch up as increasing annealing temperature per cycle) that worked efficiently and specifically over a temperature range, rather than at one specific annealing temperature (i.e. conventional PCR method). […]
[Identification of Exon Skipping Products] […] The bands of target size were collected and analyzed by Sanger Sequencing. […]

full-length AR protein = assay: Western blot of AR protein in MCF7 cells; format: cell-based, human; details: 10 zM to 30 aM
Procedure: 4 culture dishes were used for 4 negative controls. 48 hours later, cells were washed 2 times with cold PBS, and then subjected to lysis with 200 μL 1× cell lysis buffer (Cat. No. 9803, Cell Signaling Tech) supplemented with 1× protease inhibitor (Cat. No. P8340, Sigma). The lysates were collected in 1.5 ml e-tube. 200 μL of each lysate was mixed with 100 μL 3× sample buffer, and boiled for 5 min at 100 ? . 20 μL of each lysate (12 lysates in total). 4 negative controls and 8 ASO treatment samples) was subjected to electrophoretic separation on a 8% SDS-PAGE gel, and transferred onto a 0.2 μm PVDF membrane. The membrane was probed with anti-AR antibody (Cat. No. 5153, Cell Signaling Tech) and anti-β-actin antibody (Cat. No. sc4778, Santa Cruz). FIG. 10A provides the AR Western blot data obtained therefrom. Multiple (negative) control samples were used to overcome technical artifacts of western blot procedures.

Substance	number of hair follicles vs negative control group (IHC images) (androgen receptor)	AR expression in the muscle layer underneath the dermis (IHC) (androgen receptor; most notable at 5 fM)	decrease of relative expression level of exons 4-6 (TaqMan) (human AR mRNA)	AR expression in epidermis distal to the injection site, liver, testis and prostate (IHC) (AR protein)	exon skipping (AR mRNA splice variants by nested PCR and Sanger sequencing) (human AR pre-mRNA)	AR band intensity vs neighboring lysates without ASO treatment (full-length AR protein)
Fethoc-C(1O2)TT-A(5)CC-A(5)GG(6)-CA(5)A-NH2 (antisense CTTACCAGGCAA; N-Fethoc, C-terminal amide, chemistry not fully specified) [ASO 10]	increased markedly	markedly decreased	50 to 70%	markedly decreased		
Fethoc-C(1O2)TT-A(5)CC-A(5)GG-C(1O2)AA(5)-G-NH2 (antisense CTTACCAGGCAAG; all peptide nucleic acid (PNA), [C(1O2)] at 1, 10, [A(5)] at 4, 7, 12, 5' {Fethoc}, 3' {NH2}; peptide nucleic acid, written N to C terminus) [ASO 5]					induce the skipping of “exon 5”, “exons 4-5”, and “exons 4-6”	considerably weaker
